Where two headings read alike, the source gives them in different places.
System: Mycosphaerella graminicola; Anamorph: Septoria tritici; Bayer Code SEPTTR
Test: Leaf blotch of wheat, foliar fungicide treatment, one day protectant (1DP) or three day curative (3DC)
Format: in vivo, Septoria tritici on wheat plants (variety Yuma)
Details: Zymoseptoria tritici; for pest or weed control at 50 ppm / pest or weed control at 200 ppm: % disease control rating
[1] = 24 h, one day protectant (1DP), 25 ppm (first 1DP column), percent control rating, read-out: SETTTR 1DP 25 ppm
[2] = 24 h, one day protectant (1DP), 25 ppm as printed (second 1DP column), percent control rating, read-out: SETTTR 1DP 25 ppm
[3] = 72 h, three day curative (3DC), 25 ppm, percent control rating, read-out: SEPTTR 3DC 25 ppm
[4] = 72 h, three day curative (3DC), percent control rating, read-out: SEPTTR 3DC 100 ppm
[5] = 24 h, one day protectant (1DP), 25 ppm, percent disease control rating, read-out: SETTTR 1DP 25 ppm
[6] = 24 h, one day protectant (1DP), percent disease control rating, read-out: SEPTTR 1DP 100 ppm
[7] = 72 h, three day curative (3DC), 25 ppm, percent disease control rating, read-out: SEPTTR 3DC 25 ppm
[8] = 72 h, three day curative (3DC), percent disease control rating, read-out: SEPTTR 3DC 100 ppm
[9] = 24 h, one day protectant (1DP), 25 ppm, rating of percent disease control, read-out: SETTTR 1DP 25 ppm
[10] = 24 h, one day protectant (1DP), rating of percent disease control, read-out: SEPTTR 1DP 100 ppm
[11] = 72 h, three day curative (3DC), 25 ppm, rating of percent disease control, read-out: SEPTTR 3DC 25 ppm
[12] = 72 h, three day curative (3DC), rating of percent disease control, read-out: SEPTTR 3DC 100 ppm
[13] = 24 h, one day protectant, 25 ppm, rating of percent disease control, read-out: SETTTR 1DP 25 ppm
[14] = 24 h, one day protectant, rating of percent disease control, read-out: SEPTTR 1DP 100 ppm
[15] = 72 h, three day curative, 25 ppm, rating of percent disease control, read-out: SEPTTR 3DC 25 ppm
[16] = 72 h, three day curative, rating of percent disease control, read-out: SEPTTR 3DC 100 ppm

Fc1cnc(OCc2cccs2)nc1NC1CC1 [Compound 866]
pest or weed control at 50 ppm (24 h, one day protectant): 0 to 25% | pest or weed control at 200 ppm (24 h, one day protectant): 76 to 100%

COc1cccc(COc2ncc(F)c(NNc3cc(C)nc(C)n3)n2)c1 [Compound 1032]
pest or weed control at 25 ppm [1]: 26 to 50% | pest or weed control at 25 ppm [2]: 26 to 50% | pest or weed control at 25 ppm [3]: 0 to 25% | pest or weed control at 100 ppm [4]: 0 to 25%

CC(=O)Nc1nc(OCc2ccc(C)cc2)ncc1F [Compound 179]
pest or weed control at 25 ppm [5]: 76 to 100% | pest or weed control at 100 ppm [6]: 76 to 100% | pest or weed control at 25 ppm [7]: 76 to 100% | pest or weed control at 100 ppm [8]: 76 to 100%

CCOCNc1nc(OCc2ccc(F)cc2)ncc1F [Compound 257]
pest or weed control at 25 ppm [9]: 51 to 75% | pest or weed control at 100 ppm [10]: 76 to 100% | pest or weed control at 25 ppm [11]: 51 to 75% | pest or weed control at 100 ppm [12]: 76 to 100%

Nc1nc(Oc2ccc(Cl)c3ccccc23)ncc1F [Compound 378]
pest or weed control at 25 ppm [9]: 51 to 75% | pest or weed control at 100 ppm [10]: 76 to 100% | pest or weed control at 25 ppm [11]: 76 to 100% | pest or weed control at 100 ppm [12]: 76 to 100%

CCOc1ncc(F)c(N)n1 [Compound 853]
pest or weed control at 50 ppm (24 h, one day protectant): 0 to 25% | pest or weed control at 200 ppm (24 h, one day protectant): 0 to 25%

Fc1cnc(OCc2cccs2)nc1/N=C/N1CCOCC1 [Compound 369]
pest or weed control at 25 ppm [9]: 76 to 100% | pest or weed control at 100 ppm [10]: 76 to 100% | pest or weed control at 25 ppm [11]: 76 to 100% | pest or weed control at 100 ppm [12]: 76 to 100%

CC[Si](CC)(CC)Nc1nc(OCc2ccc(OC)c(F)c2)ncc1F [Compound 702]
pest or weed control at 25 ppm [13]: 76 to 100% | pest or weed control at 100 ppm [14]: 76 to 100% | pest or weed control at 25 ppm [15]: 76 to 100% | pest or weed control at 100 ppm [16]: 76 to 100%

CCCC(Oc1ncc(F)c(N)n1)c1ccc(F)cc1 (stereo not drawn) [Compound 83]
pest or weed control at 25 ppm [5]: 76 to 100% | pest or weed control at 100 ppm [6]: 76 to 100% | pest or weed control at 25 ppm [7]: 76 to 100% | pest or weed control at 100 ppm [8]: 76 to 100%

COc1ncc(F)c(N(O)Cc2ccccc2)n1 [Compound 1080]
pest or weed control at 25 ppm [1]: 0 to 25% | pest or weed control at 25 ppm [2]: 0 to 25% | pest or weed control at 25 ppm [3]: 26 to 50% | pest or weed control at 100 ppm [4]: 26 to 50%

Nc1nc(OCc2ccoc2)ncc1F [Compound 392]
pest or weed control at 25 ppm [9]: 76 to 100% | pest or weed control at 100 ppm [10]: 76 to 100% | pest or weed control at 25 ppm [11]: 76 to 100% | pest or weed control at 100 ppm [12]: 76 to 100%

COc1ncc(F)c(NOCc2ccco2)n1 [Compound 1053]
pest or weed control at 25 ppm [1]: 0 to 25% | pest or weed control at 25 ppm [2]: 0 to 25% | pest or weed control at 25 ppm [3]: 0 to 25% | pest or weed control at 100 ppm [4]: 0 to 25%

CN(C)/C=N/c1nc(OC(=O)c2ccccc2F)ncc1F [Compound 58]
pest or weed control at 25 ppm [5]: 76 to 100% | pest or weed control at 100 ppm [6]: 76 to 100% | pest or weed control at 25 ppm [7]: 76 to 100% | pest or weed control at 100 ppm [8]: 76 to 100%

COc1cc(COc2ncc(F)c(N)n2)ccc1F [Compound 581]
pest or weed control at 25 ppm [13]: 76 to 100% | pest or weed control at 100 ppm [14]: 76 to 100% | pest or weed control at 25 ppm [15]: 76 to 100% | pest or weed control at 100 ppm [16]: 76 to 100%

Fc1ccc(COc2ncc(F)c(NC3CC3)n2)cc1 [Compound 927]
pest or weed control at 50 ppm (24 h, one day protectant): 51 to 75% | pest or weed control at 200 ppm (24 h, one day protectant): 76 to 100%

Fc1cnc(OCc2ccc(OC(F)(F)F)cc2)nc1NCc1ccc(Cl)cc1 [Compound 829]
pest or weed control at 50 ppm (24 h, one day protectant): 26 to 50% | pest or weed control at 200 ppm (24 h, one day protectant): 76 to 100%

Nc1nc(OCc2c(F)cc(F)cc2F)ncc1F [Compound 194]
pest or weed control at 25 ppm [9]: 76 to 100% | pest or weed control at 100 ppm [10]: 76 to 100% | pest or weed control at 25 ppm [11]: 76 to 100% | pest or weed control at 100 ppm [12]: 76 to 100%

O=C(NCc1ccccc1)Nc1nc(O)ncc1F [Compound 969]
pest or weed control at 25 ppm [1]: 26 to 50% | pest or weed control at 25 ppm [2]: 26 to 50% | pest or weed control at 25 ppm [3]: 26 to 50% | pest or weed control at 100 ppm [4]: 51 to 75%

Fc1cnc(OCCc2ccccc2)nc1NC1CC1 [Compound 940]
pest or weed control at 50 ppm (24 h, one day protectant): 0 to 25% | pest or weed control at 200 ppm (24 h, one day protectant): 0 to 25%

COc1ccccc1COc1ncc(F)c(NSc2ccccc2[N+](=O)[O-])n1 [Compound 230]
pest or weed control at 25 ppm [9]: 76 to 100% | pest or weed control at 100 ppm [10]: 76 to 100% | pest or weed control at 25 ppm [11]: 0 to 25% | pest or weed control at 100 ppm [12]: 0 to 25%

CC(C)NC(=O)Nc1nc(OCc2cccc(C#N)c2)ncc1F [Compound 548]
pest or weed control at 25 ppm [9]: 0 to 25% | pest or weed control at 100 ppm [10]: 0 to 25% | pest or weed control at 25 ppm [11]: 0 to 25% | pest or weed control at 100 ppm [12]: 0 to 25%

CC(C)Oc1cccc(COc2ncc(F)c(N)n2)c1 [Compound 441]
pest or weed control at 25 ppm [9]: 76 to 100% | pest or weed control at 100 ppm [10]: 76 to 100% | pest or weed control at 25 ppm [11]: 76 to 100% | pest or weed control at 100 ppm [12]: 76 to 100%
